Test results: patent US20140121216A1, “INDOLEAMINE DERIVATIVES FOR THE TREATMENT OF CENTRAL NERVOUS SYSTEM DISEASES” (Adamed Sp. z o.o., priority 2011, published 2014)

Legend:
[1] = target: T1, D4.4 receptor, human recombinant (CHO cells) (Homo sapiens, UniProt P21917); assay: Binding assay, dopaminergic D4.4 receptor ([3H]methylspiperone); details: compound 1×10^−6 M
T1 construct: expressed in transfected cells; host or cells: CHO cells
T1 sequence (P21917 1-419): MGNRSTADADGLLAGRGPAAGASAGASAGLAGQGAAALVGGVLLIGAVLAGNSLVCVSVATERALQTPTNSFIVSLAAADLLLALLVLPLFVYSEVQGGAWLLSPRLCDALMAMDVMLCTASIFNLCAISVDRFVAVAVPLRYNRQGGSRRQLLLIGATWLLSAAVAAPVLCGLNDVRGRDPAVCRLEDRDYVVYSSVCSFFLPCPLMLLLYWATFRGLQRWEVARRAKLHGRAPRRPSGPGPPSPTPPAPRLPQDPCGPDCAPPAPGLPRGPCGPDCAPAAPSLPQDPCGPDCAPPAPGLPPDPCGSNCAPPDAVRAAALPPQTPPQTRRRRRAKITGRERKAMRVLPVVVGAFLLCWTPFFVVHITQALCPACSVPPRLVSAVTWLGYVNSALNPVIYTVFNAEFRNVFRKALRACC
Method: (§1) Moreover, ability of the compounds of the invention to block potassium channel hERG was tested.
(§2) The specific ligand binding to the receptors is defined as the difference between the total binding and the non-specific binding determined in the presence of an excess of unlabelled ligand.
(§3) The inhibition constants (Ki) were calculated using the Cheng Prusoff equation (Ki=IC50/(1+(L/KD)), where L=concentration of radioligand in the assay, and KD=affinity of the radioligand for the receptor). A Scatchard plot is used to determine the Kd. The IC50 values (concentration causing a half-maximal inhibition of control specific binding) and Hill coefficients (nH) were determined by non-linear regression analysis of the competition curves generated with mean replicate values using Hill equation curve fitting (Y=D+[(A−D)/(1+(C/C50)^nH)], where Y=specific binding, D=minimum specific binding, A=maximum specific binding, C=compound concentration, C50=IC50, and nH=slope factor). This analysis was performed using a software developed at Cerep (Hill software) and validated by comparison with data generated by the commercial software SigmaPlot® 4.0 for Windows® (©1997 by SPSS Inc.).
Experimental conditions for tests are given in Table 1, the results of tests for so representative compounds are given in Table 2a and 2b (receptors D2 and D3) and in Table 3 (receptors D4).

[2] = target: T2, H1 histaminergic receptors, human recombinant (HEK-293 cells) (Homo sapiens, UniProt P35367); assay: Binding assay, H1 histaminergic receptor ([3H]pyrilamine); details: for H1 [%] affinity test result: compound 1×10^−6 M; for Ki: read-out: Inhibition constant Ki H1
T2 construct: expressed in transfected cells; host or cells: HEK-293 cells
Method: as §1, §2, §3
Experimental conditions for tests are given in Table 14, and results of tests for representative compounds are given in Table 15a and 15b.

[3] = target: T3, D2S (h), human recombinant (HEK-293 cells) (Homo sapiens, UniProt P14416); assay: Cellular functional assay D2S (h) antagonism; type: cell-based; details: HEK293; compound 1×10^−6 M; stimulus dopamine 30 nM; read-out: D2-antag [%]
T3 construct: expressed in transfected cells; host or cells: HEK-293 cells
Method: (§4) The results are expressed as a percent of control specific agonist response ((measured specific response/control specific agonist response)×100) obtained in the presence of tested compound.
(§5) The EC50 values (concentration producing a half-maximal specific response) and IC50 values (concentration causing a half-maximal inhibition of the control specific agonist response) were determined by non-linear regression analysis of the concentration-response curves generated with mean replicate values using Hill equation curve fitting (Y=D+[(A−D)/(1+(C/C50)nH)], where Y=specific response, D=minimum specific response, A=maximum specific response, C=compound concentration, and C50=EC50 or IC50, and nH=slope factor).
(§6) For the antagonists, the apparent dissociation constants (Kb) were calculated using the modified Cheng Prusoff equation (Kb=IC50/(1+(A/EC50A)), where A=concentration of reference agonist in the assay, and EC50A=EC50 value of the reference agonist).

[4] = target: T4, D3 (h), human recombinant (CHO cells) (Homo sapiens, UniProt P35462); assay: Cellular functional assay D3 (h) agonism; type: cell-based; details: compound 1×10^−6 M; control 0.3 μM dopamine
T4 construct: expressed in transfected cells; host or cells: CHO cells
Method: as §4, §5, §6

[5] = target: T5, 5-HT1A (h), human recombinant (CHO cells) (Homo sapiens, UniProt P08908); assay: Cellular functional assay 5-HT1A (h) agonism; type: cell-based; details: compound 1×10^−6 M; control 100 nM 8-OHDPAT
T5 construct: expressed in transfected cells; host or cells: CHO cells
T5 sequence (P08908 1-422): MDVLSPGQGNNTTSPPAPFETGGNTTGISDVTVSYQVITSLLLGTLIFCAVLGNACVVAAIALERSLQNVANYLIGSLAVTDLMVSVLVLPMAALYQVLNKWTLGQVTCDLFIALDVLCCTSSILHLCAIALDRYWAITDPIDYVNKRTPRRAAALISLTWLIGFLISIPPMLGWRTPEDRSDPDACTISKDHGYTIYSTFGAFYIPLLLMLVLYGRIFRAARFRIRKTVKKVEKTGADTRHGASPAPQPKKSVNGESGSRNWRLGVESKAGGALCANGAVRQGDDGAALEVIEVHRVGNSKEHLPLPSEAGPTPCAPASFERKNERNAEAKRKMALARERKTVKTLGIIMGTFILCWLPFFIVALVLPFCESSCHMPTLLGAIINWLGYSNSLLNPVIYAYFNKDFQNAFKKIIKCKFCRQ
Method: as §4, §5, §6

[6] = target: T6, 5-HT2A (h), human recombinant (HEK-293 cells) (Homo sapiens, UniProt P28223); assay: Cellular functional assay 5-HT2A (h) antagonism; type: cell-based; details: compound 1×10^−6 M; stimulus serotonin 100 nM
T6 construct: expressed in transfected cells; host or cells: HEK-293 cells
Method: as §4, §5, §6

[7] = target: T7, 5-HT6 (h), human recombinant (CHO cells) (Homo sapiens, UniProt P50406); assay: Cellular functional assay 5-HT6 (h) agonism; type: cell-based; details: compound 1×10^−6 M, control 10 μM serotonin, read-out: 5-HT6-ag [%]
T7 construct: expressed in transfected cells; host or cells: CHO cells
Method: as §4, §5, §6

T7 sequence (P50406 whole entry): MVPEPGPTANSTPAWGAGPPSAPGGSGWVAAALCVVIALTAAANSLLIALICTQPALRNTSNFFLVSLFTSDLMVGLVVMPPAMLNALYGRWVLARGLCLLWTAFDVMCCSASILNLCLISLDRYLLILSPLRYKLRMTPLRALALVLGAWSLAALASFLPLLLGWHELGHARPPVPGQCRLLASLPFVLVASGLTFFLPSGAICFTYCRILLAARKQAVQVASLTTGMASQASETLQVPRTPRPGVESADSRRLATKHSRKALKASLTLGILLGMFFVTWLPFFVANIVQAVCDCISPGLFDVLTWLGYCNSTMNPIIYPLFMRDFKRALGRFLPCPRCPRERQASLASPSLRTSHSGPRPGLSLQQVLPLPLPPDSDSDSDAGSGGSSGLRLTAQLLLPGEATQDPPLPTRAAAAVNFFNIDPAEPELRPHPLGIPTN
T3 sequence (P14416 1-414 isoform P14416-2): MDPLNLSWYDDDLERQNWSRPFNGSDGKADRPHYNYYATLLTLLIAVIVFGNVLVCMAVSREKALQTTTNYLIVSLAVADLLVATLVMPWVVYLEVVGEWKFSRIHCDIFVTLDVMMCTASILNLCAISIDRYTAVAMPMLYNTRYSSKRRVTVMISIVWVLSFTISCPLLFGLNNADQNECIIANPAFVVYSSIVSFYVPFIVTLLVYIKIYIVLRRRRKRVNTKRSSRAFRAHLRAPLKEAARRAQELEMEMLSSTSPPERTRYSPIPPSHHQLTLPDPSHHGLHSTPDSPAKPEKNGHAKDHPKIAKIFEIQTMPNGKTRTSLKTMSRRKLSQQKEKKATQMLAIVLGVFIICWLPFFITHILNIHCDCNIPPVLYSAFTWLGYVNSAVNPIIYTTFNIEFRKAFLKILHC
T6 sequence (P28223 whole entry): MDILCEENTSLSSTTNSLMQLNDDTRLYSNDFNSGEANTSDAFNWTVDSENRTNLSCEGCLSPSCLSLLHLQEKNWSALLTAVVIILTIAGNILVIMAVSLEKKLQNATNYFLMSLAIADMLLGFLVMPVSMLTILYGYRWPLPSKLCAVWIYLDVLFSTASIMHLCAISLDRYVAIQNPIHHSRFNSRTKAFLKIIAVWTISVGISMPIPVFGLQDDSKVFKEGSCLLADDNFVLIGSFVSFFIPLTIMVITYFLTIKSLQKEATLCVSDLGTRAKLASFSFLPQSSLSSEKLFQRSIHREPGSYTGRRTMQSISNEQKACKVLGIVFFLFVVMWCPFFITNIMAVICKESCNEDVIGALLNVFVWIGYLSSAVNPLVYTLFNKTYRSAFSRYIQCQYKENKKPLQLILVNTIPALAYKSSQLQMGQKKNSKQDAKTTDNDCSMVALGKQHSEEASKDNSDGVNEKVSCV
T4 sequence (P35462 whole entry): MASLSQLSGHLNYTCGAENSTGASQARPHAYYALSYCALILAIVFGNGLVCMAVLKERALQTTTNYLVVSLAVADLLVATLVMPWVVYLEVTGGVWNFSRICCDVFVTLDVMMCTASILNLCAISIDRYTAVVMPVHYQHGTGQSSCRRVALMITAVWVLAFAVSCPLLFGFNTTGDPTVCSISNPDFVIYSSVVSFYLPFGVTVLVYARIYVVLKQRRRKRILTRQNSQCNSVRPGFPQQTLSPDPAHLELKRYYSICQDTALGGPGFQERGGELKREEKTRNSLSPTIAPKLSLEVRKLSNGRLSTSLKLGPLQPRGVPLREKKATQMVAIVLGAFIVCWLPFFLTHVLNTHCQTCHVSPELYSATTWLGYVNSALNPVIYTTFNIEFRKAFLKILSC
T2 sequence (P35367 whole entry): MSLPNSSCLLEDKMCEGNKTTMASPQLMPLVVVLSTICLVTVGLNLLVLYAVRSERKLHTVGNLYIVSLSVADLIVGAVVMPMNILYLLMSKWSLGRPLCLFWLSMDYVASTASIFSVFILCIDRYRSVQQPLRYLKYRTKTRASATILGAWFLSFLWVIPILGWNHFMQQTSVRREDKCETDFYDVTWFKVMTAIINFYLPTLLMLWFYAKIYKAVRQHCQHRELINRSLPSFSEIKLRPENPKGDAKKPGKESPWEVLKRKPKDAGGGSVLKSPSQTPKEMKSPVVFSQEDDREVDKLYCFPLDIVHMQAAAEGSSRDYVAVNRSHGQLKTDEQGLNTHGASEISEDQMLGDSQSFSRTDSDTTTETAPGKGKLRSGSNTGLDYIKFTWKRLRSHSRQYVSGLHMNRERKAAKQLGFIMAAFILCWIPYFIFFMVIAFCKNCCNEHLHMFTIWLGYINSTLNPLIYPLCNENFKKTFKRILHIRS

SMILES	D4.4 [%] binding assay result [1]	H1 [%] affinity test result [2]	inhibition at 1 µM [3]	D3-ag [%] [4]	5-HT1A-ag [%] [5]	5-HT2A-antag [%] [6]	activation at 1 µM [7]	Ki [2]
O=C1CCc2ccc(OCCCN3CCN(c4cccc5c4ccn5Cc4ccccc4)CC3)cc2N1 [Compound 4, 7-[3-[4-(1-Benzylindol-4-yl)piperazin-1-yl]propoxy]-3,4-dihydro-1H-quinolin-2-one]	63%	73%	89%	22%	63%	17%	0%	
O=C1CCc2ccc(OCCCCN3CCN(c4cccc5c4ccn5Cc4ccccc4)CC3)cc2N1 [Compound 5, 7-(4-(4-(1-Benzyl-1H-indol-4-yl)piperazin-1-yl)butoxy)-3,4-dihydroquinolin-2(1H)-one]	40%	88%	99%	22%	66%	66%	-1%	
O=C1CCc2ccc(OCCCN3CCN(c4cccc5c4ccn5S(=O)(=O)c4ccccc4)CC3)cc2N1 [Compound 23, 7-[3-[4-[1-(Benzensulphonyl)indol-4-yl]piperazin-1-yl]propoxy]-3,4-dihydro-1H-quinolin-2-one]	18%	72%	55%	65%	69%		2%	150 nM
O=C1CCc2ccc(OCCCCN3CCN(c4cccc5c4ccn5S(=O)(=O)c4ccccc4)CC3)cc2N1 [Compound 24, 7-(4-(4-(1-(Phenylsulphonyl)-1H-indol-4-yl)piperazin-1-yl)butoxy)-3,4-dihydroquinolin-2(1H)-one]	42%	78%	93%	13%	69.7%	34.2%	0%	100 nM
O=C1CCc2ccc(OCCCCN3CCN(c4cccc5c4ccn5Cc4cccc(F)c4)CC3)cc2N1 [Compound 63, 7-[4-[4-[1-[(3-Fluorophenyl)methyl]indol-4-yl]piperazin-1-yl]butoxy]-3,4-dihydro-1H-quinolin-2-one]	46%	81%	108%	20%	26%	63%	-1%	
O=C1CCc2ccc(OCCCCN3CCN(c4cccc5c4ccn5Cc4cccc(Cl)c4)CC3)cc2N1 [Compound 67, 7-[4-[4-[1-[(3-Chlorophenyl)methyl]indol-4-yl]piperazin-1-yl]butoxy]-3,4-dihydro-1H-quinolin-2-one]	44%		103%	11%	23%	34%	0%	
NC(=O)c1ccccc1OCCCN1CCN(c2cccc3c2ccn3S(=O)(=O)c2ccccc2)CC1 [Compound 72, 2-[3-[4-[1-(Benzenesulfonyl)indol-4-yl]piperazin-1-yl]propoxy]-benzamide]	95%	80%	95%	34%	16%	45%	-2%	
